# Laboratory results from publication PMC5729429, “Gimatecan exerts potent antitumor activity against gastric cancer in vitro and in vivo via AKT and MAPK signaling pathways” (Journal of Translational Medicine, 2017).
# Tested on: AKT and MAPK signaling pathways
# Experiment: Western blot of AKT and MAPK pathway molecules in GC cells
# Type: cell-based, human
# Conditions: 48 h
# Experimental: SNU-1, HGC27 and NCI-N87 cells were starved in serum-free medium overnight, exposed to inhibitors for 48 h and harvested at 70–80% confluence. Total protein was extracted from cells or xenograft tissues on ice, using RIPA Lysis Buffer (Beyotime, Shanghai, China) supplemented with complete protease inhibitor and phosphatase inhibitor cocktail (Roche, Basel, Switzerland). Protein concentration was measured using a BCA Protein Assay Kit (Beyotime, Shanghai, China), and 50 μg protein from each sample was separated by 10% SDS-PAGE. After transfer to nitrocellulose membranes (GE Healthcare, Piscataway, NJ), samples were incubated with corresponding primary antibodies diluted in 5% BSA at 4 °C overnight and then with secondary antibodies at room temperature for 1 h. Proteins were visualized with a chemiluminescent detection system (GE Healthcare), using ECL plus Western blot reagents (GE Healthcare). Western-blotting bands were quantified and normalized by ImageJ software.
# Cells were starved in serum-free medium overnight, exposed to gimatecan or irinotecan for 48 h and harvested at 70–80% confluence. Total protein of SNU-1 and NCI-N87 was extracted and the expression of TopI, pAKT, pMEK, pERK, p-p38 MAPK and pJNK2 were assessed by western-blotting followed by quantification and normalization by ImageJ. All data are mean ± SD of three independent experiments. Compared with controls, *p < 0.05
structure (smiles),measurement,setting,value
"CC[C@@]1(O)C(=O)OCc2c1cc1n(c2=O)Cc2c-1nc1ccccc1c2/C=N/OC(C)(C)C [Gimatecan, 7-t-butoxyiminomethylcamptothecin]",effect on AKT and MAPK pathway molecules,NCI-N87 cells,only inhibited expression of pAKT and pERK
same,effect on AKT and MAPK pathway molecules,"SNU-1 and HGC27 cells, pAKT, pMEK, pERK inhibited, p-p38 and pJNK2 upregulated",significantly inhibited the AKT pathway and activated the JNK2 and p38 MAPK pathway
